# Source: patent publication US20200155481A1, “INTRAMUSCULAR ATOVAQUONE FOR MALARIA PROPHYLAXIS” (THE JOHNS HOPKINS UNIVERSITY, priority 2017, published 2020)
# Tests used:
# [1] = system: P. berghei ANKA sporozoites; assay: murine Plasmodium berghei sporozoite challenge model (prophylaxis efficacy); type: in vivo; conditions: intramuscular, dose-dependent; mice; FIG. 2
# Procedure: Four- to six-day old Anopheles stephensi adult mosquitoes fasted for 6 h were fed on Swiss Webster mice infected with P. berghei (ANKA 2.34 strain). Fed mosquitoes were maintained for 18 d (19° C., 80% relative humidity), when salivary glands were harvested into RPMI medium and disrupted by several passages through a 0.5 in 28-gauge needle to release sporozoites. Parasites were counted by hemocytometer and diluted to 25,000 mL^−1 RPMI. C57BL6 mice were challenged by intravenous infusion of 5,000 sporozoites in 200 μL RPMI.
# (§1) All dosing materials were constituted just before use. Mepron suspension (150 mg/mL atovaquone) was the starting material. Pluronic F-68 (10%) was used to dilute Mepron to required dosing concentration (≤100 mg/mL), or as vehicle control. For the washed drug preparation, atovaquone was pelleted from diluted Mepron (50 mg/mL, 13,000×g, 10 min) and the supernatant was replaced with equal volume 0.9% NaCl. Washing was repeated three times prior to final resuspension of excipient-depleted atovaquone at 50 mg/mL in 0.9% NaCl for dosing. C57BL6 male mice (˜20 g; 3-5 per group) were injected intramuscularly (biceps femoris; 23-gauge needle, 100 μl Hamilton syringe) with diluted or washed Mepron (40 μl total volume, 20 μl per limb). Oral Mepron was administered by gavage. […]
# in vivo = assay: in vivo; set-up: species or system mice; conditions: male, C57BL6, mouse, im, 200 mg/kg
# Procedure: as §1, with “gavage. At predetermined post-dose intervals, animals were challenged with P. berghei ANKA by infusion of 5,000 sporozoites into a tail vein. Starting 4 d post-challenge then weekly thereafter for 42 d, tail snip blood samples were examined for parasites via Giemsa-stained thin smears. Each experiment included an untreated cohort to validate the challenge. Efficacy outcomes were binary. The appearance of parasitemia in any animal in a cohort was designated a dosing failure.” for “gavage.”
# [2] = cited from earlier work
compound,measurement,setting,value
O=C1C(O)=C([C@H]2CC[C@H](c3ccc(Cl)cc3)CC2)C(=O)c2ccccc21 [atovaquone],"successful malaria prophylaxis (parasite-free), days post-challenge",[1],up to 42 days
same,half-life,in vivo,182 h
same,solubility in water,[2],practically insoluble
